# Assay results from patent EP0358508A2, “Novel immunosuppressant compound” (MERCK & CO. INC., priority 1988, dated 1990).
# “Also recorded” adds a separate entry of the source.
# Legend:
# [1] = tested on: mouse T lymphocytes stimulated with the combination of ionomycin plus PMA; assay: T-cell proliferation assay (ionomycin plus PMA induced T-cell stimulation, tritiated thymidine uptake); assay type: cell-based, C57B1/6 mice
# Source text: The principle of this assay is to measure the proliferation of mouse T lymphocytes stimulated with the combination of ionomycin plus PMA. A positive sample in this assay will inhibit T-cell proliferation, as indicated by reduced tritiated thymidine uptake.
# Spleens from C57B1/6 mice were taken under sterile conditions and gently dissociated in ice-cold RPMI 1640 culture medium (GIBCO, Grand Island, N.Y.) supplemented with 10% heat-inactivated fetal calf serum (GIBCO). Cells were pelleted by centrifugation at 1500 rpm for 8 minutes. Contaminating red cells were removed by treating the pellet with ammonium chloride lysing buffer (GIBCO) for 2 minutes at 4°C. […]
# Purified T lymphocytes were resuspended at 2.5 x 10⁵ cells/ml in complete culture medium composed of RPMI 1640 medium with 10% heat-inactivated fetal calf serum, […] glutamine, 1 mM sodium pyruvate, 2 x 10⁻⁵ M 2-mercaptoethanol and 50 µg/ml gentamycin. […] The proliferation of T lymphocytes was assessed by measurement of tritiated thymidine incorporation. […] Radioactivity of filter discs corresponding to individual wells was measured by standard liquid scintillation counting methods (Beta counter). Mean counts per minute of replicate wells were calculated and the results expressed as percent inhibition of tritiated thymidine uptake (proliferation) as follows: [formula] […]
# [2] = Physical characteristics: solubility; assay type: physicochemical; settings: solvent methanol; qualitative
# Source text: White amorphous powder • 2. […] Molecular weight of 805, as determined by mass spectrometry consistent with a molecular ion at (m/z) 1093.6556 for the tetra-(trimethylsilyl) derivative and characteristic fragment ions at (m/z) 673 and 481.
# White amorphous powder • 2. […] Molecular weight of 805, as determined by mass spectrometry consistent with a molecular ion at (m/z) 1021.6169 for the tri-(trimethylsilyl) derivative and characteristic fragment ions at (m/z) 675 and 483.
smiles,measurement,setting,value
CCC[C@@H]1/C=C(\C)C[C@H](C)C[C@H](OC)[C@H]2O[C@@](O)(C(=O)C(=O)N3CCCC[C@H]3C(=O)O[C@H](/C(C)=C/[C@@H]3CC[C@@H](O)[C@H](OC)C3)[C@H](C)[C@@H](O)CC1=O)[C@H](C)C[C@@H]2OC [Tsukubamycin B],inhibition of T-cell proliferation after addition of IL-2,[1]; 50 units/ml of IL-2 (recombinant human IL-2) added at the initiation of culture,reversed
same,inhibition of T-cell activation / % inhibition of tritiated thymidine uptake (proliferation),"[1]; purified mouse spleen T lymphocytes, ionomycin 250 ng/ml plus PMA 10 ng/ml, 44 hours culture plus 4 hours pulse, various concentrations, no numbers given",indicated its immunosuppressant properties; also recorded: positive inhibition of T-cell activation
same,Solubility,[2],Solubility in methanol
